Measured values as given in article PMC3426641 (Biochemistry, 2012).
Read-outs that look alike come from different tables or passages of the source.

Tests used:
Eis_Msm [1] = molecular target: T1, Eis_Msm (Mycobacterium smegmatis, UniProt A0QY29); assay: biochemical
Eis_Mtb [2] = molecular target: T2, Eis_Mtb (Mycobacterium tuberculosis, UniProt P9WFK7); assay: biochemical
Eis_Msm [3] = molecular target: T1, Eis_Msm
Eis_Msm [4] = molecular target: T1, Eis_Msm; assay: Number of acetylations of AGs by Eis_Msm; format: biochemical; conditions: number of acetylations per AG; UV-Vis assay and LCMS, 25 °C, pH 8.0
Eis_Mtb [5] = molecular target: T2, Eis_Mtb
Eis_Msm [6] = molecular target: T1, Eis_Msm; assay: Inhibition of Eis_Msm NEO acetylation; format: biochemical; conditions: for mode of inhibition: Eis_Msm, against NEO
Eis_Mtb [7] = molecular target: T2, Eis_Mtb; assay: Inhibition of Eis_Mtb NEO acetylation; format: biochemical
[8] = tested on: NC[C@H]1O[C@H](O[C@H]2[C@H](O)[C@@H](O[C@H]3O[C@H](CO)[C@@H](O)[C@H](N)[C@H]3O)[C@H](N)C[C@@H]2N)[C@H](N)C[C@@H]1O; assay: purified protein, by the assay type; conditions: pH 8.0
[9] = tested on: NC[C@@H]1O[C@H](O[C@H]2[C@@H](O)[C@H](O[C@@H]3[C@@H](O)[C@H](N)C[C@H](N)[C@H]3O[C@H]3O[C@H](CN)[C@@H](O)[C@H](O)[C@H]3N)O[C@@H]2CO)[C@H](N)[C@@H](O)[C@@H]1O; assay: purified protein, by the assay type; conditions: other: Eis_Msm, pH 8.0
[10] = tested on: NC[C@@H]1O[C@H](O[C@H]2[C@@H](O)[C@H](O[C@@H]3[C@@H](O)[C@H](N)C[C@H](N)[C@H]3O[C@H]3O[C@H](CO)[C@@H](O)[C@H](O)[C@H]3N)O[C@@H]2CO)[C@H](N)[C@@H](O)[C@@H]1O; assay: purified protein, by the assay type; conditions: other: Eis_Msm, fixed AcCoA 0.1 mM, varying AG, 25 °C, pH 8.0
[11] = tested on: NC[C@H]1O[C@H](O[C@H]2[C@H](O)[C@@H](O)[C@H](N)C[C@@H]2N)[C@H](N)[C@@H](O)[C@@H]1O; assay: purified protein, by the assay type; conditions: pH 8.0
[12] = tested on: CN[C@@H]1[C@@H](O)[C@@H](O[C@@H]2[C@@H](O)[C@H](O[C@H]3OC(CN)=CC[C@H]3N)[C@@H](N)C[C@H]2N)OC[C@]1(C)O; assay: purified protein, by the assay type; conditions: other: Eis_Msm, pH 8.0
[13] = tested on: NCC[C@H](O)C(=O)N[C@@H]1C[C@H](N)[C@@H](O[C@H]2O[C@H](CN)[C@@H](O)[C@H](O)[C@H]2O)[C@H](O)[C@H]1O[C@H]1O[C@H](CO)[C@@H](O)[C@H](N)[C@H]1O; assay: purified protein, by the assay type; conditions: pH 8.0
[14] = tested on: CCN[C@@H]1C[C@H](N)[C@@H](O[C@H]2OC(CN)=CC[C@H]2N)[C@H](O)[C@H]1O[C@H]1OC[C@](C)(O)[C@H](NC)[C@H]1O; assay: purified protein, by the assay type; conditions: other: Eis_Msm, pH 8.0
[15] = Eis_Msm, fixed AG 0.5 mM, varying AcCoA, 25 °C, pH 8.0
[16] = other: Eis_Msm, fixed AcCoA 0.1 mM, varying AG, 25 °C
[17] = fixed AcCoA 0.1 mM, varying AG, 25 °C
[18] = random sequential mechanism, 25.0 °C

T2 sequence (P9WFK7 whole entry): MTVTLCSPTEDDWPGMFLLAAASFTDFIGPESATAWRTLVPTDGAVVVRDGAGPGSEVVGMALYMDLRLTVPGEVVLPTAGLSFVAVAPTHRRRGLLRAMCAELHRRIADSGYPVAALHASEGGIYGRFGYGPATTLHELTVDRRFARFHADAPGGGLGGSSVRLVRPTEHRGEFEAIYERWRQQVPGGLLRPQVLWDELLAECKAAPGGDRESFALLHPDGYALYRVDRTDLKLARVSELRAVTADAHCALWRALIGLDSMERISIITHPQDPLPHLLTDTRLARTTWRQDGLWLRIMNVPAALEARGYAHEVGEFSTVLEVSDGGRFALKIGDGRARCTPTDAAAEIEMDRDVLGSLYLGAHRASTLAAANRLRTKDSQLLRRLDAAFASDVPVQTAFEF

NCC[C@H](O)C(=O)N[C@@H]1C[C@H](N)[C@@H](O[C@H]2O[C@H](CN)[C@@H](O)[C@H](O)[C@H]2O)[C@H](O)[C@H]1O[C@H]1O[C@H](CO)[C@@H](O)[C@H](N)[C@H]1O [AMK, amikacin]
Kd (Eis_Msm [1]): > 1000 µM
Kd (Eis_Mtb [2]): 32 ± 14 µM
kcat,AcCoA (Eis_Msm [3]; [15]): 0.142 ± 0.026 s⁻¹
level of acetylation by Eis from M. smegmatis (Eis_Msm [4]): tri-acetylated

CN[C@@H]1[C@@H](O[C@H]2O[C@H](CO)[C@@H](N)[C@H](O)[C@H]2O)OC2C[C@@H](N)[C@@H](O[C@H]3[C@H](O)[C@@H](O)[C@H](N)C[C@@H]3N)OC2[C@@H]1O (stereo partly shown) [APR, apramycin]
level of acetylation by Eis from M. smegmatis (Eis_Msm [4]): di-acetylated

CC(=O)SCCNC(=O)CCNC(=O)[C@H](O)C(C)(C)COP(=O)(O)OP(=O)(O)OC[C@H]1O[C@@H](n2cnc3c(N)ncnc32)[C@H](O)[C@@H]1OP(=O)(O)O [AcCoA, acetyl-coenzyme A]
Kd,AcCoA(E) fold smaller than Kd,AcCoA(E•AG) (Eis_Msm [3]; Eis_Msm, AG = KAN): approximately 17 fold

CN[C@@H]1C[C@H](N)[C@@H](O)[C@H](O[C@H]2O[C@H](CO)[C@H](O)[C@@H]3O[C@@]4(O[C@@H]23)O[C@H]([C@H](N)CO)[C@H](O)[C@H](O)[C@H]4O)[C@H]1O [HYG, hygromycin]
level of acetylation by Eis from M. smegmatis (Eis_Msm [4]): mono-acetylated

NC[C@H]1O[C@H](O[C@H]2[C@H](O)[C@@H](O)[C@H](N)C[C@@H]2N)[C@H](N)[C@@H](O)[C@@H]1O [NEA, neamine]
Kd (Eis_Msm [1]): 141 ± 60 µM
Kd (Eis_Mtb [2]): 95 ± 50 µM
level of acetylation by Eis from M. smegmatis (Eis_Msm [4]): tri-acetylated

NC[C@@H]1O[C@H](O[C@H]2[C@@H](O)[C@H](O[C@@H]3[C@@H](O)[C@H](N)C[C@H](N)[C@H]3O[C@H]3O[C@H](CN)[C@@H](O)[C@H](O)[C@H]3N)O[C@@H]2CO)[C@H](N)[C@@H](O)[C@@H]1O [NEO, neomycin B]
Kd (Eis_Msm [1]): > 1000 µM
Kd (Eis_Mtb [2]): 75 ± 41 µM
kcat,AcCoA (Eis_Msm [3]; 25 °C, pH 8.0): 0.546 ± 0.065 s⁻¹
level of acetylation by Eis from M. smegmatis (Eis_Msm [4]): tri-acetylated

CCN[C@@H]1C[C@H](N)[C@@H](O[C@H]2OC(CN)=CC[C@H]2N)[C@H](O)[C@H]1O[C@H]1OC[C@](C)(O)[C@H](NC)[C@H]1O [NET, netilmicin]
Kd (Eis_Msm [1]): 108 ± 35 µM
Kd (Eis_Mtb [2]): 31 ± 10 µM
kcat,AcCoA (Eis_Msm [3]; [15]): 0.819 ± 0.121 s⁻¹
level of acetylation by Eis from M. smegmatis (Eis_Msm [4]): di-acetylated

NC[C@@H]1O[C@H](O[C@H]2[C@@H](O)[C@H](O[C@@H]3[C@@H](O)[C@H](N)C[C@H](N)[C@H]3O[C@H]3O[C@H](CO)[C@@H](O)[C@H](O)[C@H]3N)O[C@@H]2CO)[C@H](N)[C@@H](O)[C@@H]1O [PAR, paromomycin]
kcat,AG (Eis_Mtb [5]): 0.15 ± 0.01 s⁻¹
Km (Eis_Mtb [5]; read-out: Km,AG): 96 ± 20 µM
level of acetylation by Eis from M. smegmatis (Eis_Msm [4]): tri-acetylated

NC[C@H]1O[C@H](O[C@H]2[C@H](O[C@@H]3O[C@H](CO)[C@@H](O)[C@H]3O)[C@@H](O)[C@H](N)C[C@@H]2N)[C@H](N)[C@@H](O)[C@@H]1O [RIB, ribostamycin]
level of acetylation by Eis from M. smegmatis (Eis_Msm [4]): tri-acetylated

CN[C@@H]1[C@@H](O)[C@@H](O[C@@H]2[C@@H](O)[C@H](O[C@H]3OC(CN)=CC[C@H]3N)[C@@H](N)C[C@H]2N)OC[C@]1(C)O [SIS, sisomicin]
Kd (Eis_Msm [1]): 179 ± 54 µM
Kd (Eis_Mtb [2]): 340 ± 140 µM
kcat,AcCoA (Eis_Msm [3]; 25 °C, pH 8.0): 0.620 ± 0.063 s⁻¹
level of acetylation by Eis from M. smegmatis (Eis_Msm [4]): tri-acetylated

CN[C@@H]1[C@H](O)[C@H](NC)[C@H]2O[C@@]3(O)C(=O)C[C@@H](C)O[C@H]3O[C@@H]2[C@H]1O [SPT, spectinomycin]
level of acetylation by Eis from M. smegmatis (Eis_Msm [4]): not modified

[H]/N=C(/N)N[C@H]1[C@H](O)[C@@H](O)[C@H](O[C@@H]2O[C@@H](C)[C@](O)(C=O)[C@H]2O[C@@H]2O[C@@H](CO)[C@H](O)[C@@H](O)[C@@H]2NC)[C@@H](N/C(N)=N\[H])[C@@H]1O [STR, streptomycin]
level of acetylation by Eis from M. smegmatis (Eis_Msm [4]): not modified

NC[C@H]1O[C@H](O[C@H]2[C@H](O)[C@@H](O[C@H]3O[C@H](CO)[C@@H](O)[C@H](N)[C@H]3O)[C@H](N)C[C@@H]2N)[C@H](N)C[C@@H]1O [TOB, tobramycin]
level of acetylation by Eis from M. smegmatis (Eis_Msm [4]): tetra-acetylated

[H]/N=C(\N/C(=N/[H])NCCCCCCNC(=N)NC(=N)Nc1ccc(Cl)cc1)Nc1ccc(Cl)cc1 [chlorhexidine (1), chlorhexidine]
IC50 (Eis_Msm [6]): 1.85 µM
Ki (Eis_Msm [6]): 0.47 ± 0.15 µM
mode of inhibition (Eis_Msm [6]; listed as 1): AG-competitive mode
mode of inhibition (Eis_Msm [6]; listed as Chlorhexidine (1)): competitive inhibitor of NEO
Ki (Eis_Mtb [7]): 0.105 ± 0.024 µM

Eis_Msm (Mycolicibacterium smegmatis MC2 155)
Km [8, 16]: 131 ± 22 µM
kcat [8, 16]: 0.267 ± 0.016 s⁻¹
Km [9, 17]: 314 ± 77 µM
kcat [9, 18]: > 1 s⁻¹
Km [10]: 153 ± 55 µM
kcat [10]: 0.035 ± 0.006 s⁻¹
Km [11, 16]: 359 ± 101 µM
kcat [11, 16]: 0.176 ± 0.027 s⁻¹
Km [12, 17]: 82 ± 8 µM
kcat [12, 17]: 0.206 ± 0.006 s⁻¹
kcat [12, 18]: 0.85 ± 0.25 s⁻¹
Km [13, 16]: 251 ± 55 µM
kcat ([13]; other: Eis_Msm, random sequential mechanism, 25.0 °C): > 0.3 s⁻¹
Km [14, 17]: 197 ± 30 µM
kcat [14, 17]: 0.835 ± 0.057 s⁻¹
kcat [14, 18]: 1 ± 0.4 s⁻¹

Eis_Mtb (Mycobacterium tuberculosis H37Rv)
Km ([8]; 25.0 °C): 116 ± 17 µM
kcat ([8]; 25.0 °C): 0.21 ± 0.01 s⁻¹
Km ([11]; 25.0 °C): 137 ± 57 µM
kcat ([11]; 25.0 °C): 0.064 ± 0.01 s⁻¹
Km ([13]; 25.0 °C): 113 ± 35 µM
kcat ([13]; 25.0 °C): 0.03 ± 0.004 s⁻¹

kanamycin A
kcat (microscopic rate constant of acetylation) (Eis_Mtb [5]): 0.16 ± 0.07 s⁻¹
kcat,AcCoA (Eis_Mtb [5]): 0.094 ± 0.004 s⁻¹
kcat,AcCoA (Eis_Msm [3]; [15]): 0.398 ± 0.060 s⁻¹
kcat,AG (Eis_Msm [3]; Eis_Msm, fixed AcCoA 0.1 mM, varying AG, 25 °C, pH 8.0): 0.108 ± 0.005 s⁻¹
level of acetylation by Eis from M. smegmatis (Eis_Msm [4]): di-acetylated
